Test systems include TK-10 renal; OVCAR-4 ovarian; BT-549 breast; EKVX NSCLC; M14 melanoma; SF-268 CNS; CCRF-CEM leukemia; CAKI-1 renal.
Common to all, as to experiment: NCI anticancer screen, dose series, 48 h

Where “and” joins values, the source holds several entries; their conditions need not be identical. Equal values may be shown once.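 Dose response: 5 concentrations. Exposure: 48 h. Format: 96-well plates. Endpoint: linear interpolation; highest concentration if not reached. GI50 is the concentration that inhibits growth by half. TGI marks complete inhibition of growth.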 Bounds are passed on as bounds.

Regarding `CC1(C)CCC(C)(C)c2c1ccc(O)c2Cc1c(O)ccc2c1C(C)(C)CCC2(C)C`, the TGI with TK-10 renal turned out to be 3.87 µM; in the assay on OVCAR-4 ovarian, 3.53 µM; in the assay on BT-549 breast, 5.2 µM; in the assay with EKVX NSCLC it was 9.16 µM; in the assay with M14 melanoma it was 3.75 µM; in the assay with SF-268 CNS, 6.75 µM. For the same compound, the TGI with CCRF-CEM leukemia stood at 5.75 µM; in the assay on CAKI-1 renal it was 4.2 µM.

With `CC(=O)Oc1cc2c(OC(C)=O)c(-c3c(C)cc4c(C(C)C)c(OC(C)=O)c(OC(C)=O)cc4c3OC(C)=O)c(C)cc2c(C(C)C)c1OC(C)=O`, the GI50 is 7.37 µM and 5.6 µM and 16.2 µM with TK-10 renal; 4.07 µM and 5.16 µM and 9.94 µM with BT-549 breast; 4.82 µM and 4.81 µM and 9.21 µM with EKVX NSCLC; 6.75 µM and 5.89 µM and 8.15 µM in the assay with M14 melanoma; 6.91 µM and 7.21 µM and 11.7 µM in the assay on SF-268 CNS; 0.707 µM and 5.41 µM and 5.98 µM with CCRF-CEM leukemia. Moreover, in the assay on CAKI-1 renal, the GI50 was 7.61 µM and 6.16 µM and 11.5 µM. Further, the TGI in the assay with TK-10 renal was 21.9 µM and 17.4 µM and > 42.8 µM; in the assay with OVCAR-4 ovarian it was 32 µM and > 69.6 µM and > 84.2 µM; in the assay with BT-549 breast it was 9.05 µM and 10.2 µM and 26.6 µM; in the assay on EKVX NSCLC, 10.6 µM and 9.92 µM and 26.7 µM; in the assay with M14 melanoma, 18.5 µM and 12.5 µM and 19.3 µM; with SF-268 CNS it was 39.7 µM and 29 µM and 37.4 µM. Besides, the TGI with CCRF-CEM leukemia was 4.04 µM and 15.6 µM and 20.7 µM; in the assay with CAKI-1 renal, 21.9 µM and 13.1 µM and 30.9 µM.

For `COc1ccc(-c2cc(-c3ccc(O)cc3)nc3n[nH]c(N)c23)cc1`, the GI50 in the assay on TK-10 renal was 29.8 µM; in the assay with OVCAR-4 ovarian, 43.3 µM; in the assay with BT-549 breast, 15.5 µM; in the assay on EKVX NSCLC, 15.3 µM; in the assay with M14 melanoma, 21.3 µM; in the assay with SF-268 CNS, 19.6 µM. Besides, the GI50 is 21.6 µM in the assay with CCRF-CEM leukemia and 20.2 µM in the assay with CAKI-1 renal. Further, the TGI with TK-10 renal was above 100 µM; in the assay on OVCAR-4 ovarian, above 100 µM; with BT-549 breast, 32.6 µM; in the assay with EKVX NSCLC, 52.3 µM; in the assay on M14 melanoma, 43 µM; with SF-268 CNS, 56.2 µM. The TGI in the assay with CCRF-CEM leukemia is 81.8 µM; with CAKI-1 renal, 78.3 µM.

Take `COc1ccc(-c2c(-c3cc(OC)c(OC)c(OC)c3)noc2N)cc1`: the GI50 with TK-10 renal is 0.461 µM; with OVCAR-4 ovarian, 0.0249 µM; in the assay with BT-549 breast, 0.0215 µM; in the assay with EKVX NSCLC, 1.03 µM; in the assay on M14 melanoma, below 0.01 µM; in the assay on SF-268 CNS, below 0.0181 µM. Moreover, the GI50 in the assay with CCRF-CEM leukemia is 0.0307 µM; in the assay on CAKI-1 renal it was below 0.01 µM. Moreover, the TGI was above 56.5 µM with TK-10 renal; 57.5 µM in the assay on OVCAR-4 ovarian; 0.0673 µM in the assay on BT-549 breast; above 100 µM in the assay on EKVX NSCLC; above 100 µM with M14 melanoma; 16.3 µM in the assay with SF-268 CNS. Moreover, the TGI in the assay on CCRF-CEM leukemia and with CAKI-1 renal was above 100 µM each time.

On to `O=c1c2ccccc2c2ccccc2c(=O)n1Cc1ccc2c(c1)OCO2`, for which the TGI is above 100 µM with TK-10 renal; above 100 µM in the assay on OVCAR-4 ovarian; 88.7 µM in the assay on BT-549 breast; above 100 µM with EKVX NSCLC; above 100 µM with M14 melanoma; above 100 µM in the assay with SF-268 CNS. The TGI is 93.2 µM in the assay on CCRF-CEM leukemia and above 100 µM in the assay on CAKI-1 renal.

Consider `CN(C)CCCNC(=O)c1cncnc1Nc1ccc(OCc2cccc(F)c2)c(Cl)c1`, for which the GI50 with TK-10 renal is 1.84 µM; in the assay on OVCAR-4 ovarian, 1.83 µM; in the assay with BT-549 breast, 1.59 µM; in the assay on EKVX NSCLC, 1.58 µM; in the assay with M14 melanoma, 1.71 µM; in the assay with SF-268 CNS, 1.81 µM. The GI50 in the assay on CCRF-CEM leukemia was 1.82 µM; in the assay with CAKI-1 renal it was 1.66 µM. For the same compound, the TGI in the assay with TK-10 renal stood at 3.48 µM; in the assay with OVCAR-4 ovarian it was 4.36 µM; with BT-549 breast, 3.06 µM; with EKVX NSCLC, 3.15 µM; with M14 melanoma, 3.38 µM; with SF-268 CNS, 3.34 µM. In addition, the TGI was 3.94 µM in the assay with CCRF-CEM leukemia and 3.05 µM in the assay with CAKI-1 renal.

In the case of `COc1ccc(OC)c(-c2cc(=O)c3c(OC)c(OC)c(OC)c(OC)c3o2)c1`, the TGI was above 100 µM with TK-10 renal; 88.7 µM with OVCAR-4 ovarian; above 100 µM in the assay with BT-549 breast; above 100 µM in the assay with EKVX NSCLC; above 100 µM in the assay with M14 melanoma; above 100 µM in the assay on SF-268 CNS. In addition, the TGI in the assay with CCRF-CEM leukemia and in the assay with CAKI-1 renal was above 100 µM in each case.

As to `CCN(CC)CCNc1cc(-c2cccc(OC(F)(F)F)c2)nc2ccc(N3CCCC3)cc12`, the GI50 in the assay on TK-10 renal was 2.06 µM and 1.87 µM and 2.31 µM; with OVCAR-4 ovarian it was 2.14 µM and 1.62 µM and 3.11 µM; in the assay on BT-549 breast it was 1.6 µM and 1.83 µM and 1.85 µM; in the assay with EKVX NSCLC it was 2.14 µM and 2.29 µM and 2.49 µM; with M14 melanoma, 1.6 µM and 1.82 µM and 1.86 µM; in the assay with SF-268 CNS, 1.98 µM and 1.92 µM and 2.23 µM. The GI50 in the assay on CCRF-CEM leukemia was 1.57 µM and 2.19 µM and 2.8 µM; in the assay on CAKI-1 renal it was 1.58 µM and 1.41 µM and 3.08 µM. In addition, the TGI was 4.5 µM and 3.49 µM and 5.73 µM with TK-10 renal; 7.86 µM and 3.67 µM and 12.9 µM with OVCAR-4 ovarian; 3.11 µM and 3.47 µM and 3.57 µM with BT-549 breast; 5.82 µM and 6.24 µM and 8.91 µM in the assay with EKVX NSCLC; 3.12 µM and 3.51 µM and 3.63 µM in the assay with M14 melanoma; 4.18 µM and 3.96 µM and 5.89 µM with SF-268 CNS. Moreover, the TGI in the assay on CCRF-CEM leukemia was 4.2 µM and 6.84 µM and 10.4 µM; in the assay with CAKI-1 renal it was 3.29 µM and 2.76 µM and 11.5 µM.

Values taken from PubChem BioAssay (NCI).
